Laboratory results from US20260263448A1, “CONTROLLED RELEASE INJECTABLE CARIPRAZINE FORMULATION” (Richter Gedeon Nyrt., priority 2021, published 2026).
≈ marks a conversion by molar mass, not a printed value. Counter-ions that a name gives are not always drawn. Like-named read-outs stand apart in the source and are kept apart here.

Test: Solubility at different pH values (37° C.)
Assay type: physicochemical
Conditions: for solubility: aqueous buffer, read-out: Solubility (average, mg/ml); for Solubility in the pH-range of human muscle and subcutaneous tissues: pH 6.8-7.5

| solubility (pH = 3, 37° C.) [mg/mL] | solubility (pH = 4.4, 37° C.) [mg/mL] | solubility (pH = 6.8, 37° C.) [mg/mL] | Solubility in the pH-range of human muscle and subcutaneous tissues | Solubility category (USP) (pH = 3, 37° C.) | Solubility category (USP) (pH = 4.4, 37° C.) | Solubility category (USP) (pH = 6.8, 37° C.) | Solubility (average, mg/ml) (pH = 7.4, 37° C.) | Solubility category (USP) (pH = 7.4, 37° C.) | solubility (pH = 4.5, 37° C.) [mg/mL] | solubility (pH = 5.5, 37° C.) [mg/mL] | solubility (pH = 7.5, 37° C.) [mg/mL] | Solubility category (USP) (pH = 4.5, 37° C.) | Solubility category (USP) (pH = 5.5, 37° C.) | Solubility (average, mg/ml) (pH = 6.8, 37° C.) [mg/mL] | Solubility category (USP) (pH = 7.5, 37° C.) | Compound |
| --- | --- | --- | --- | --- | --- | --- | --- | --- | --- | --- | --- | --- | --- | --- | --- | --- |
| 0.204 (≈ 477 µM) | 0.357 (≈ 835 µM) | 0.0007 (≈ 1.64 µM) | practically insoluble | Very slightly soluble | Very slightly soluble | Practically insoluble | not detectable | Practically insoluble | – | – | – | – | – | – | – | CN(C)C(=O)N[C@H]1CC[C@H](CCN2CCN(c3cccc(Cl)c3Cl)CC2)CC1 [Cariprazine base, trans-N-{4-[2-[4-(2,3-dichlorophenyl)-piperazin-1-yl]-ethyl]-cyclohexyl}-N′,N′-dimethylurea] |
| 6 | – | – | practically insoluble | Slightly soluble | – | Practically insoluble | – | – | 13.8 | 0.27 | 0.001 | Sparingly soluble | Very slightly soluble | 0.005 | Practically insoluble | CN(C)C(=O)N[C@H]1CC[C@H](CCN2CCN(c3cccc(Cl)c3Cl)CC2)CC1 [Cariprazine hydrochloride] |
